Measured values as given in BindingDB's records for doi:10.7270/Q2CV4GM1 (D3R/Abbott, 2015).
“And” between values parts separate entries of the source, which are not always exact repeats. Identical values can stand only once.

Molecular target: T1, Tyrosine-protein kinase SYK [355-635] (Homo sapiens, UniProt P43405)
T1 construct: 355-635
Experiment: SYK assay_HTRF

| SMILES | IC50 |
| --- | --- |
| NS(=O)(=O)c1cccc(Nc2nccc(Nc3cccc4[nH]ncc34)n2)c1 [3-{[4-(1H-indazol-4-ylamino)pyrimidin-2-yl]amino}benzene-1-sulfonamide] | 0.018 µM and 0.0475 µM |
| NC(=O)c1ccc(Nc2nccc(Nc3cccc4[nH]ncc34)n2)cc1 [GTC000108B] | 0.1 µM and 0.218 µM and 0.0514 µM and 0.0598 µM |
| c1cc(Nc2ccnc(Nc3cccc4[nH]ncc34)n2)c2cn[nH]c2c1 [GTC000113A] | 0.16 µM |
| COc1cc(Nc2nccc(Nc3cccc4[nH]ncc34)n2)cc(OC)c1 [GTC000118A] | 0.0353 µM and 0.0671 µM and 0.0935 µM and 0.203 µM |
| O=C(O)Cc1cccc(Nc2nccc(Nc3cccc4[nH]ncc34)n2)c1 [GTC000125A] | 0.118 µM and 0.493 µM |
| c1cc(Nc2nccc(Nc3cccc4[nH]ncc34)n2)cc(-c2cc[nH]n2)c1 [GTC000126A] | 0.0223 µM and 0.0419 µM |
| c1cc(Nc2ccnc(Nc3ccc(N4CCOCC4)cc3)n2)c2cn[nH]c2c1 [GTC000129A] | 0.22 µM |
| c1cc(Nc2nccc(Nc3cccc4[nH]ncc34)n2)cc(-c2nnn[nH]2)c1 [GTC000130A] | 0.00343 µM and 0.0143 µM |
| FC(F)(F)c1cccc(Nc2nccc(Nc3cccc4[nH]ncc34)n2)c1 [GTC000132A] | 0.154 µM and 0.127 µM and 0.151 µM and 0.44 µM |
| O=C1NS(=O)(=O)c2cc(Nc3nccc(Nc4cccc5[nH]ncc45)n3)ccc21 [GTC000133A] | 0.0173 µM and 0.0446 µM |
| FC(F)(F)c1ccc(Nc2nccc(Nc3cccc4[nH]ncc34)n2)cc1 [GTC000136A] | 0.206 µM |
| c1cc(Nc2nccc(Nc3cccc4[nH]ncc34)n2)cc(-c2ccsc2)c1 [GTC000137A] | 0.0942 µM and 0.162 µM and 0.16 µM and 0.353 µM |
| N#Cc1ccc(Nc2nccc(Nc3cccc4[nH]ncc34)n2)cc1 [GTC000139A] | 0.211 µM |
| CNC(=O)COc1cccc(Nc2nccc(Nc3cccc4[nH]ncc34)n2)c1 [GTC000140A] | 0.0363 µM and 0.0457 µM and 0.0374 µM and 0.0807 µM |
| O=C1Nc2cc(Nc3nccc(Nc4cccc5[nH]ncc45)n3)ccc2OC1(F)F [GTC000144A] | 0.0135 µM and 0.104 µM |
| CC1(C)Oc2ccc(Nc3nccc(Nc4cccc5[nH]ncc45)n3)cc2NC1=O [GTC000145A] | 0.0386 µM and 0.153 µM |
| CNC(=O)c1ccc(Nc2nccc(Nc3cccc4[nH]ncc34)n2)cc1 [GTC000146A] | 0.0653 µM and 0.114 µM |
| O=S1(=O)Cc2ccc(Nc3nccc(Nc4cccc5[nH]ncc45)n3)cc2C1 [GTC000147A] | 0.0605 µM and 0.109 µM |
| CCN(CC)C(=O)c1ccc(Nc2nccc(Nc3cccc4[nH]ncc34)n2)cc1 [GTC000150A] | 0.315 µM |
| O=S1(=O)NCc2cc(Nc3nccc(Nc4cccc5[nH]ncc45)n3)ccc21 [GTC000153A] | 0.0422 µM and 0.0859 µM and 0.0541 µM |
| c1cc(Nc2nccc(Nc3cccc4[nH]ncc34)n2)cc(-c2cnco2)c1 [GTC000156A] | 0.0187 µM and 0.0336 µM |
| c1cc(Nc2nccc(Nc3cccc4[nH]ncc34)n2)cc(-c2nc3ccccc3[nH]2)c1 [GTC000157A] | 0.0054 µM and 0.0152 µM |
| c1cc(Nc2ccnc(Nc3ccc(-c4cnco4)cc3)n2)c2cn[nH]c2c1 [GTC000165A] | 0.119 µM and 0.18 µM and 0.34 µM and 0.202 µM |
| O=C1CNC(=O)N1c1ccc(Nc2nccc(Nc3cccc4[nH]ncc34)n2)cc1 [GTC000166A] | 0.242 µM |
| O=C1CNC(=O)N1c1cccc(Nc2nccc(Nc3cccc4[nH]ncc34)n2)c1 [GTC000167A] | 0.233 µM |

| SMILES | IC50 |
| --- | --- |
| CCN(C(C)=O)c1ccc(Nc2nccc(Nc3cccc4[nH]ncc34)n2)cc1 [GTC000172A] | 0.589 µM |
| c1ccc(COc2cccc(Nc3nccc(Nc4cccc5[nH]ncc45)n3)c2)cc1 [GTC000173A] | 0.148 µM and 0.195 µM and 0.348 µM and 0.71 µM |
| COC(=O)c1ccc(Nc2nccc(Nc3cccc4[nH]ncc34)n2)cc1 [GTC000174A] | 0.175 µM and 0.209 µM |
| CC(=O)N(C)c1ccc(Nc2nccc(Nc3cccc4[nH]ncc34)n2)cc1 [GTC000175A] | 0.793 µM |
| CC(C)(C)c1ccc(Nc2nccc(Nc3cccc4[nH]ncc34)n2)cc1 [GTC000176A] | 0.508 µM |
| Cc1cc(=O)[nH]c2c(C)cc(Nc3nccc(Nc4cccc5[nH]ncc45)n3)cc12 [GTC000177A] | 0.0139 µM and 0.0431 µM and 0.0354 µM and 0.0196 µM |
| CC(C)ONS(=O)(=O)c1cccc(Nc2nccc(Nc3cccc4[nH]ncc34)n2)c1 [GTC000178A] | 0.685 µM |
| O=S(=O)(c1cccc(Nc2nccc(Nc3cccc4[nH]ncc34)n2)c1)N1CCCCC1 [GTC000179A] | 4.16 µM |
| CONS(=O)(=O)c1ccc(Nc2nccc(Nc3cccc4[nH]ncc34)n2)cc1 [GTC000180A] | 0.2 µM and 0.276 µM |
| NS(=O)(=O)c1ccc(Nc2nccc(Nc3cccc4[nH]ncc34)n2)cc1 [GTC000181A] | 0.0655 µM and 0.211 µM and 0.194 µM and 0.162 µM and 0.0729 µM |
| O=C(Nc1ccccc1)c1ccc(Nc2nccc(Nc3cccc4[nH]ncc34)n2)cc1 [GTC000182A] | 0.433 µM and 0.398 µM |
| Cc1ccc(NC(=O)c2ccc(Nc3nccc(Nc4cccc5[nH]ncc45)n3)cc2)cc1 [GTC000183A] | 0.546 µM and 0.618 µM |
| CNS(=O)(=O)c1ccc(Nc2nccc(Nc3cccc4[nH]ncc34)n2)cc1 [GTC000184A] | 0.493 µM and 0.443 µM and 0.161 µM |
| CN1CCN(C(=O)c2ccc(Nc3nccc(Nc4cccc5[nH]ncc45)n3)cc2)CC1 [GTC000185A] | 4.19 µM |
| O=S(=O)(Nc1nccs1)c1ccc(Nc2nccc(Nc3cccc4[nH]ncc34)n2)cc1 [GTC000186A] | 0.615 µM and 0.427 µM |
| Cc1noc(NS(=O)(=O)c2ccc(Nc3nccc(Nc4cccc5[nH]ncc45)n3)cc2)c1C [GTC000187A] | 1.38 µM and 0.971 µM |
| O=S(=O)(c1ccc(Nc2nccc(Nc3cccc4[nH]ncc34)n2)cc1)N1CCCC1 [GTC000188A] | 1.8 µM and 1.34 µM |
| Cc1cc(NS(=O)(=O)c2ccc(Nc3nccc(Nc4cccc5[nH]ncc45)n3)cc2)no1 [GTC000189A] | 0.741 µM and 0.942 µM and 0.582 µM |
| O=S(=O)(Nc1ccccn1)c1ccc(Nc2nccc(Nc3cccc4[nH]ncc34)n2)cc1 [GTC000191A] | 0.673 µM and 0.571 µM |
| O=C(COc1ccc(Nc2nccc(Nc3cccc4[nH]ncc34)n2)cc1)NCCCO [GTC000192A] | 0.611 µM |
| O=S(=O)(Cc1cccc(Nc2nccc(Nc3cccc4[nH]ncc34)n2)c1)NCCCO [GTC000193A] | 0.575 µM |
| CC(C)(C)OC(=O)COc1ccc(Nc2nccc(Nc3cccc4[nH]ncc34)n2)cc1 [GTC000194A] | 1.18 µM and 1.96 µM and 1.64 µM |
| CNS(=O)(=O)Cc1ccc(Nc2nccc(Nc3cccc4[nH]ncc34)n2)cc1 [GTC000195A] | 0.426 µM |
| NC(=O)COc1ccc(Nc2nccc(Nc3cccc4[nH]ncc34)n2)cc1 [GTC000196A] | 0.227 µM |
| CNC(=O)COc1ccc(Nc2nccc(Nc3cccc4[nH]ncc34)n2)cc1 [GTC000197A] | 0.299 µM |

Further lines, results first:

| IC50 | SMILES |
| --- | --- |
| 0.533 µM | NC(=O)c1cccc(Nc2nccc(Nc3cccc4[nH]ncc34)n2)c1 [3-{[4-(1H-indazol-4-ylamino)pyrimidin-2-yl]amino}benzamide] |
| 0.18 µM and 0.071 µM and 0.0807 µM and 0.115 µM | O=C1Cc2cc(Nc3nccc(Nc4cccc5[nH]ncc45)n3)ccc2N1 [GTC000107A] |
| 0.0536 µM | Cc1cc(=O)[nH]c2cc(Nc3nccc(Nc4cccc5[nH]ncc45)n3)ccc12 [GTC000109A] |
| 0.222 µM | c1cc(Nc2ccnc(Nc3ccc4c(c3)CCO4)n2)c2cn[nH]c2c1 [GTC000111A] |
| 0.0528 µM and 0.0798 µM | c1cc(Nc2ccnc(Nc3ccc4nn[nH]c4c3)n2)c2cn[nH]c2c1 [GTC000112A] |
| 0.206 µM | CC(=O)N1CCc2cc(Nc3nccc(Nc4cccc5[nH]ncc45)n3)ccc21 [GTC000114A] |
| 0.0783 µM | O=c1[nH]c2ccc(Nc3nccc(Nc4cccc5[nH]ncc45)n3)cc2[nH]1 [GTC000115A] |
| 0.195 µM and 0.146 µM | O=C1CCc2ccc(Nc3nccc(Nc4cccc5[nH]ncc45)n3)cc21 [GTC000116A] |
| 0.0912 µM | O=C1CCCc2cc(Nc3nccc(Nc4cccc5[nH]ncc45)n3)ccc21 [GTC000117A] |
| 0.207 µM | O=C(O)c1cccc(Nc2nccc(Nc3cccc4[nH]ncc34)n2)c1 [GTC000119A] |
| 0.04 µM and 0.0535 µM | c1cc(Nc2ccnc(Nc3ccc4ncsc4c3)n2)c2cn[nH]c2c1 [GTC000122A] |
| 0.0601 µM and 0.0885 µM | Cc1nc2ccc(Nc3nccc(Nc4cccc5[nH]ncc45)n3)cc2s1 [GTC000123A] |
| 0.0168 µM and 0.0217 µM | Cn1ncc2ccc(Nc3nccc(Nc4cccc5[nH]ncc45)n3)cc21 [GTC000124A] |
| 0.25 µM and 0.0585 µM and 0.127 µM | COC(=O)c1cccc(Nc2nccc(Nc3cccc4[nH]ncc34)n2)c1 [GTC000127B] |
| 0.219 µM | CC(C)c1ccc(Nc2nccc(Nc3cccc4[nH]ncc34)n2)cc1 [GTC000128A] |
| 0.0624 µM and 0.0705 µM | N#Cc1cccc(Nc2nccc(Nc3cccc4[nH]ncc34)n2)c1 [GTC000131A] |
| 0.0292 µM and 0.0498 µM and 0.0661 µM and 0.13 µM | Cc1ncoc1-c1cccc(Nc2nccc(Nc3cccc4[nH]ncc34)n2)c1 [GTC000134A] |
| 0.179 µM and 0.225 µM and 0.243 µM and 0.923 µM | COc1ccc(Nc2nccc(Nc3cccc4[nH]ncc34)n2)cc1 [GTC000135A] |
| 0.195 µM and 0.0505 µM | Oc1ccc(Nc2nccc(Nc3cccc4[nH]ncc34)n2)cc1 [GTC000138A] |

| IC50 | SMILES |
| --- | --- |
| 0.14 µM and 0.145 µM and 0.284 µM and 0.612 µM | COc1ccc(Nc2nccc(Nc3cccc4[nH]ncc34)n2)cc1Cl [GTC000141A] |
| 0.114 µM and 0.255 µM | c1cc(Nc2ccnc(Nc3ccc4c(c3)CCC4)n2)c2cn[nH]c2c1 [GTC000142A] |
| 0.0067 µM and 0.032 µM | Cc1nc(-c2cccc(Nc3nccc(Nc4cccc5[nH]ncc45)n3)c2)no1 [GTC000148A] |
| 0.00721 µM and 0.0252 µM | O=C1Nc2ccc(Nc3nccc(Nc4cccc5[nH]ncc45)n3)cc2CO1 [GTC000149A] |
| 0.0685 µM and 0.0885 µM | O=C1OCc2cc(Nc3nccc(Nc4cccc5[nH]ncc45)n3)ccc21 [GTC000152A] |
| 0.0223 µM and 0.0415 µM | O=C1Cc2ccc(Nc3nccc(Nc4cccc5[nH]ncc45)n3)cc2N1 [GTC000154A] |
| 0.0405 µM and 0.0659 µM and 0.0776 µM and 0.267 µM | c1cc(Nc2ccnc(Nc3ccc4c(c3)OCO4)n2)c2cn[nH]c2c1 [GTC000155A] |
| 0.0986 µM and 0.0891 µM and 0.244 µM | Cn1c(=O)n(C)c2cc(Nc3nccc(Nc4cccc5[nH]ncc45)n3)ccc21 [GTC000158A] |
| 0.0281 µM | Cc1cc(=O)[nH]c2ccc(Nc3nccc(Nc4cccc5[nH]ncc45)n3)cc12 [GTC000159A] |
| 0.0484 µM and 0.076 µM | c1cc(Nc2ccnc(Nc3ccc4oncc4c3)n2)c2cn[nH]c2c1 [GTC000160A] |
| 0.11 µM and 0.094 µM and 0.245 µM | Cn1cnc2cc(Nc3nccc(Nc4cccc5[nH]ncc45)n3)ccc21 [GTC000162A] |
| 0.149 µM and 0.221 µM | Cc1ncoc1-c1ccc(Nc2nccc(Nc3cccc4[nH]ncc34)n2)cc1 [GTC000163A] |
| 0.0585 µM and 0.0861 µM and 0.214 µM | Cn1ncc2cc(Nc3nccc(Nc4cccc5[nH]ncc45)n3)ccc21 [GTC000164A] |
| 0.468 µM | Cc1nc2cc(Nc3nccc(Nc4cccc5[nH]ncc45)n3)ccc2s1 [GTC000168A] |
| 0.421 µM and 0.242 µM | O=c1ccc2cc(Nc3nccc(Nc4cccc5[nH]ncc45)n3)ccc2o1 [GTC000169A] |
| 0.573 µM | CN1C(=O)c2ccc(Nc3nccc(Nc4cccc5[nH]ncc45)n3)cc2C1=O [GTC000170A] |
| 0.506 µM | O=C1NC(=O)c2cc(Nc3nccc(Nc4cccc5[nH]ncc45)n3)ccc21 [GTC000171A] |
| 1.1 µM | O=S(=O)(O)c1cccc(Nc2nccc(Nc3cccc4[nH]ncc34)n2)c1 [GTC000190A] |
